Results taken from PubChem BioAssay AID792 (PCMD, 2007).
Records with an inconclusive call do not appear. Calls of active or inactive are those of the source. How the calls were made is not given here.

Biological target: S. cerevisiae eIF2B mutant, luciferase reporter luminescence
Assay: potency on yeast eIF2B luminescence signal – S. cerevisiae, mutant, wild-type, growth, dose response (AID 792)
[1] = measured here: mutant yeast growth
[2] = S. cerevisiae wild-type, luminescence

| SMILES | IC50 | IC50 [1] | IC50 [2] |
| --- | --- | --- | --- |
| CC(=O)c1ccc(NC(=O)c2noc3c2CCCCC3)cc1 | > 100 µM (inactive) | > 100 µM |  |
| CCOC(=O)c1oc2cc(O)ccc2c(=O)c1-c1csc(C)n1 | > 100 µM (inactive) | > 100 µM |  |
| CCCc1nc(-c2ccccc2O)n(-c2ccccc2)n1 | > 100 µM (inactive) | > 100 µM |  |
| CCSc1nnc(-c2ccc(S(=O)(=O)NCc3cccs3)cc2)o1 | > 100 µM (inactive) | > 100 µM |  |
| COc1ccccc1CC(=O)N1CCN(c2cccc(C(F)(F)F)c2)CC1 | > 100 µM (inactive) | > 100 µM |  |
| CCN(CC(N)=O)S(=O)(=O)c1ccc(Br)cc1 | > 100 µM (inactive) | > 100 µM |  |
| COc1ccccc1-n1nc(C(=O)Nc2ccc3c(c2)OCO3)c2ccccc2c1=O | > 100 µM (inactive) | > 100 µM |  |
| Cc1cc(C)n(-c2cc(C(C)(C)C)nc3c(-c4ccc(Cl)cc4)cnn23)n1 | > 100 µM (inactive) | > 100 µM |  |
| CC(C)C(=O)N1CCN(C2=NS(=O)(=O)c3ccccc32)CC1 | > 100 µM (inactive) | > 100 µM |  |
| Cc1ccccc1C(=O)Nc1ccccn1 | > 100 µM (inactive) | > 100 µM |  |
| Cn1c(CNc2ccccc2)cc(=O)n(C)c1=O | > 100 µM (inactive) | > 100 µM |  |
| Cc1cc2nnc(SCC(=O)NCc3cccs3)n2c2ccccc12 | > 100 µM (inactive) | > 100 µM |  |
| CS(=O)(=O)c1ccc2nc(NC(=O)C3C4C=CC(C4)C3C(=O)O)sc2c1 (stereo unspecified) | > 100 µM (inactive) | > 100 µM |  |
| CC(C)CNC(=O)c1cc2nc(C3CC3)cc(C(F)(F)F)n2n1 | > 100 µM (inactive) | > 100 µM |  |
| CCOC(=O)c1cc(S(=O)(=O)N2CCN(C(=O)OCC)CC2)cn1C | > 100 µM (inactive) | > 100 µM |  |
| Cc1cccc(-c2nnc(SCC#N)n2Cc2ccccc2)c1 | > 100 µM (inactive) | > 100 µM |  |
| COc1ccc(CC(=O)Nc2ccc(N3CCN(c4ccc(OC)cc4)CC3)c(C#N)c2)cc1 | > 100 µM (inactive) | > 100 µM |  |
| CCC(C)(C)n1nnnc1CN(Cc1cccs1)Cc1cc2cc(OC)ccc2[nH]c1=O | > 100 µM (inactive) | > 100 µM |  |
| Cc1ccc2c(c1)N(CC(=O)NCc1cccnc1)C(=O)CO2 | > 100 µM (inactive) | > 100 µM |  |

| SMILES | IC50 | IC50 [1] | IC50 [2] |
| --- | --- | --- | --- |
| COc1cccc(-n2c(C)nnc2SCC(=O)Nc2ccccc2N2CCOCC2)c1 | > 100 µM (inactive) | > 100 µM |  |
| O=c1/c(=C/c2ccc(O)cc2)sc2n1CCCN=2 | inactive | > 100 µM | 2.11 µM |
| O=C(Nc1ccc2nc(-c3ccc4nc[nH]c4c3)[nH]c2c1)c1cccs1 | > 100 µM (inactive) | > 100 µM |  |
| COC(=O)c1cccc(NC(=O)c2ccc(S(=O)(=O)N3CCN(C)CC3)cc2)c1 | > 100 µM (inactive) | > 100 µM |  |
| O=C(NC(Cc1ccccc1)C(=O)OCC(=O)N1CCc2ccccc21)c1ccco1 (stereo unspecified) | > 100 µM (inactive) | > 100 µM |  |
| COc1ccc(-c2cc3nc(C)cc(N)n3n2)cc1 | inactive | > 100 µM | 3.87 µM |
| CCOC(=O)c1c(C)[nH]c(C(=O)Nc2ccc3c(c2)OCO3)c1C | > 100 µM (inactive) | > 100 µM |  |
| CC(C)C1Oc2ccccc2N(CC(=O)N(Cc2ccccn2)CC2CCCO2)C1=O (stereo unspecified) | > 100 µM (inactive) | > 100 µM |  |
| CCOC(=O)Cn1c(=O)c2c(nc3n2CCN3Cc2ccccc2)n(C)c1=O | > 100 µM (inactive) | > 100 µM |  |
| O=C(Cc1ccccc1)N(c1ccc(F)cc1)C1C=CS(=O)(=O)C1 (stereo unspecified) | > 100 µM (inactive) | > 100 µM |  |
| CCC(=O)N1CCc2cc(S(=O)(=O)NC(C(=O)NCc3ccccc3)C(C)C)ccc21 (stereo unspecified) | > 100 µM (inactive) | > 100 µM |  |
| CSC1=NCCN1C(=O)c1cccc(C(F)(F)F)c1 | > 100 µM (inactive) | > 100 µM |  |
| COc1ccc(S(=O)(=O)CCC(=O)N2c3ccccc3CC2C)cc1 (stereo unspecified) | > 100 µM (inactive) | > 100 µM |  |
| COc1cccc(NC(=O)CN(c2ccc(C)cc2)S(=O)(=O)c2c(C)nn(C)c2C)c1 | > 100 µM (inactive) | > 100 µM |  |
| CCOc1cc(-c2nc(-c3ccc(C)nc3OCC)no2)cc(OCC)c1OCC | > 100 µM (inactive) | > 100 µM |  |
| O=C(c1ccco1)N1CCN(C(=O)c2ccccc2Oc2ccccc2)CC1 | > 100 µM (inactive) | > 100 µM |  |
| O=C(N1CCOCC1)N1c2ccccc2CC(N2CCOCC2)c2ccccc21 (stereo unspecified) | > 100 µM (inactive) | > 100 µM |  |
| O=C1c2ccncc2C(=O)N1C1CCCCC1 | > 100 µM (inactive) | > 100 µM |  |
| CCOC(=O)N1CCN(C(=O)COc2cc(=O)n(CC)c3ccccc23)CC1 | > 100 µM (inactive) | > 100 µM |  |

| SMILES | IC50 | IC50 [1] | IC50 [2] |
| --- | --- | --- | --- |
| CN1CCN(C(=O)CSc2nc(-c3ccncc3)ccc2C#N)CC1 | > 100 µM (inactive) | > 100 µM |  |
| Cc1c(C(=O)Nc2nccs2)sc2nc(-c3cccs3)cc(C(F)(F)F)c12 | > 100 µM (inactive) | > 100 µM |  |
| Cc1nnc2sc(-c3ccncc3)nn12 | > 100 µM (inactive) | > 100 µM |  |
| Cc1ccc2c(c1)C1CN(C)CCC1N2C(=O)Nc1cccc(Cl)c1 (stereo unspecified) | > 100 µM (inactive) | > 100 µM |  |
| O=c1c(-c2cc3ccccc3o2)[n+]([O-])c2ccccc2n1OCc1ccccn1 | > 100 µM (inactive) | > 100 µM |  |
| Cc1cc(N)n2nc(-c3ccc(C(C)(C)C)cc3)cc2n1 | inactive | 30.1 µM |  |
| CCCC(=O)Nc1sc(C(=O)OC)c(C)c1C(N)=O | > 100 µM (inactive) | > 100 µM |  |
| CN1CCN(c2nc(N3CCN(CCO)CC3)nc3ccccc23)CC1 | > 100 µM (inactive) | > 100 µM |  |
| CCS(=O)(=O)N1CCCC(C(=O)NCCN(C)Cc2ccccc2)C1 (stereo unspecified) | > 100 µM (inactive) | > 100 µM |  |
| Cc1cnc(NC(=O)CN(C)S(=O)(=O)c2ccc(Cl)cc2)s1 | > 100 µM (inactive) | > 100 µM |  |
| CCCn1c(SCC(=O)Nc2nc3c(s2)CCCC3)nc2c1c(=O)n(C)c(=O)n2C | > 100 µM (inactive) | > 100 µM |  |
| Cc1nn(C)c(C)c1CN(C)C(=O)c1cc2nc(-c3ccco3)cc(C(F)(F)F)n2n1 | > 100 µM (inactive) | > 100 µM |  |
| CC(=O)c1cnc2c(-c3ccc(Cl)cc3)c(C)nn2c1C | > 100 µM (inactive) | > 100 µM |  |
| Cc1ccc(N2CC(C(=O)Nc3ccccc3C(=O)NC3CCCCC3)CC2=O)cc1C (stereo unspecified) | > 100 µM (inactive) | > 100 µM |  |
| CCCCC(=O)Nc1ccc(N2CCN(S(C)(=O)=O)CC2)cc1 | > 100 µM (inactive) | > 100 µM |  |
| C=CCc1cccc(CNc2nc3ccccc3n2C(C)C)c1O | > 100 µM (inactive) | > 100 µM |  |
| CCCOc1ccc(C(=O)N2CCCc3ccccc32)cc1 | > 100 µM (inactive) | > 100 µM |  |
| Cc1cccc(-n2c(SCC(=O)Nc3nonc3C)nnc2-c2ccoc2C)c1 | > 100 µM (inactive) | > 100 µM |  |
| COC(=O)c1cc(O)c(OCc2ccccc2)c(O)c1 | > 100 µM (inactive) | > 100 µM |  |
